Results published in article PMC11423540, “Synthesis and biological evaluation of ortho-phenyl phenylhydroxamic acids containing phenothiazine with improved selectivity for class IIa histone deacetylases” (Journal of Enzyme Inhibition and Medicinal Chemistry, 2024).

Key:
HDAC8 = target: T1, HDAC8 (Homo sapiens, UniProt Q9BY41); experiment: HDAC inhibition assay, HDAC8
T1 sequence (Q9BY41 1-377): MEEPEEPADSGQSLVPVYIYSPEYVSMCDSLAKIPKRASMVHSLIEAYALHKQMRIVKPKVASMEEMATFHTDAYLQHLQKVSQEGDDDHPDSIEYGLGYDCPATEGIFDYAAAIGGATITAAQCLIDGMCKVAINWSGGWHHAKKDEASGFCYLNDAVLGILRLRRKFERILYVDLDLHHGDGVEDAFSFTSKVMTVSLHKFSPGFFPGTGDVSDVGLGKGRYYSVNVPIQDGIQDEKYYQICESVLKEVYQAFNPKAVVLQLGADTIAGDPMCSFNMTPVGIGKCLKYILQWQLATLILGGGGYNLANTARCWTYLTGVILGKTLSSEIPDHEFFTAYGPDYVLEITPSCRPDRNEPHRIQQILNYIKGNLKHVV

HDAC6 = target: T2, HDAC6 (Homo sapiens, UniProt Q9UBN7); experiment: HDAC inhibition assay, HDAC6
T2 sequence (Q9UBN7 1-1215): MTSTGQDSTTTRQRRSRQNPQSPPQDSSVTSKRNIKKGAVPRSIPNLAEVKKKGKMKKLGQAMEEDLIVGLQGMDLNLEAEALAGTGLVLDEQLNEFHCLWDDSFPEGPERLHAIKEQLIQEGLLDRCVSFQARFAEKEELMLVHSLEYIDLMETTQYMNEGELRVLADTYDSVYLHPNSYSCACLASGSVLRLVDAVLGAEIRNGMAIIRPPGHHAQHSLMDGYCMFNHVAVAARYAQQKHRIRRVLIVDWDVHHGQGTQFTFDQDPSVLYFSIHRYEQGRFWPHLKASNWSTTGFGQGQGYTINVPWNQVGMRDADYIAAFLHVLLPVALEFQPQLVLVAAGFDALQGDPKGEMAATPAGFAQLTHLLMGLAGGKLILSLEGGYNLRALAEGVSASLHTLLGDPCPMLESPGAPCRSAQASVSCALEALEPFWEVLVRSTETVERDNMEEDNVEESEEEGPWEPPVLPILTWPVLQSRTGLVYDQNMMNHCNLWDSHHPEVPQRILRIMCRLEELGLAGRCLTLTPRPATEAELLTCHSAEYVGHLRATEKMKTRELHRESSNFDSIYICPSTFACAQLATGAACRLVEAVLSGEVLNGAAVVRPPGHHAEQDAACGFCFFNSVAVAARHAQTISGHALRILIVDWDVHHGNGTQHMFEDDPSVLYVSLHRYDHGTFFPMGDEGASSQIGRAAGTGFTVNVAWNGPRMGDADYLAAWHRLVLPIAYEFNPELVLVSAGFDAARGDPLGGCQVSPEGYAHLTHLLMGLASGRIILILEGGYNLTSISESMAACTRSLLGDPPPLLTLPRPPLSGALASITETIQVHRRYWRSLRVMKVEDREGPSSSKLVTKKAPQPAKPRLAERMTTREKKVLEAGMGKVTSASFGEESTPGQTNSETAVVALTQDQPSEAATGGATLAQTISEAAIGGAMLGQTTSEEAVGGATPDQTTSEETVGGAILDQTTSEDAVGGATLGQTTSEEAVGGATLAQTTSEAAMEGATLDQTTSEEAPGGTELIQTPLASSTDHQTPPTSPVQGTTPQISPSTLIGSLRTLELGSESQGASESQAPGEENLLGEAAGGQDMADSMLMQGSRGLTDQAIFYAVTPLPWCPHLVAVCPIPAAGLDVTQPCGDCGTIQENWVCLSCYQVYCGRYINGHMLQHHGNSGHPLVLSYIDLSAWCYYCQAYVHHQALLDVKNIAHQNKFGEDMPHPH

[1] = Cell viability (MTT) assay, normal human lung fibroblasts; type: cell-based; conditions: normal human lung fibroblasts (NHLF, CC-2512); normal human lung fibroblast cells; read-out: IC50 of cytotoxicity against normal cells
Text: (§1) Human breast cancer MDA-MB-231 cells and gastric cancer SCM-1 cells were purchased from the American Type Culture Collection (Manasas, VA, USA). SCC2095 human oral cancer cells were kindly provided by Professor Susan R. Mallery (The Ohio State University). Normal human lung fibroblasts (NHLFs; CC-2512) were purchased from the Lonza (Walkersville, MD, USA). SCM-1 cells were maintained in RPMI-1640 medium (Invitrogen, Carlsbad, CA, USA); MDA-MB-231 and SCC2095 cells were maintained in DMEM/F12 (Invitrogen); and NHLFs were maintained in FGM™-2 medium (Lonza) with 2% serum, supplemented with 10% heat-inactivated foetal bovine serum (FBS; Gibco, Grand Island, NY, USA). All cells were cultured at 37 °C in a humidified incubator containing 5% CO2 and 95% relative humidity.
(§2) To assess cell viability, cells were seeded in three replicates into 96-well plates at a density of 5×10^3/well for 24 h following incubation with compounds at the indicated concentrations. Then, cell viability was assessed with 3–(4,5-dimethylthiazol-2-yl)-2,5-diphenyltetrazolium bromide (MTT) solution (0.5 mg/mL) for 4h as described previously. After removing the medium, 200 µL of DMSO was added, and then the absorbance was measured at 570 nm using a plate reader (BMG LABTECH, Germany).

HDAC4 = HDAC4 (Homo sapiens, UniProt P56524); experiment: HDAC inhibition assay, HDAC4
Sequence of HDAC4 (P56524 whole entry): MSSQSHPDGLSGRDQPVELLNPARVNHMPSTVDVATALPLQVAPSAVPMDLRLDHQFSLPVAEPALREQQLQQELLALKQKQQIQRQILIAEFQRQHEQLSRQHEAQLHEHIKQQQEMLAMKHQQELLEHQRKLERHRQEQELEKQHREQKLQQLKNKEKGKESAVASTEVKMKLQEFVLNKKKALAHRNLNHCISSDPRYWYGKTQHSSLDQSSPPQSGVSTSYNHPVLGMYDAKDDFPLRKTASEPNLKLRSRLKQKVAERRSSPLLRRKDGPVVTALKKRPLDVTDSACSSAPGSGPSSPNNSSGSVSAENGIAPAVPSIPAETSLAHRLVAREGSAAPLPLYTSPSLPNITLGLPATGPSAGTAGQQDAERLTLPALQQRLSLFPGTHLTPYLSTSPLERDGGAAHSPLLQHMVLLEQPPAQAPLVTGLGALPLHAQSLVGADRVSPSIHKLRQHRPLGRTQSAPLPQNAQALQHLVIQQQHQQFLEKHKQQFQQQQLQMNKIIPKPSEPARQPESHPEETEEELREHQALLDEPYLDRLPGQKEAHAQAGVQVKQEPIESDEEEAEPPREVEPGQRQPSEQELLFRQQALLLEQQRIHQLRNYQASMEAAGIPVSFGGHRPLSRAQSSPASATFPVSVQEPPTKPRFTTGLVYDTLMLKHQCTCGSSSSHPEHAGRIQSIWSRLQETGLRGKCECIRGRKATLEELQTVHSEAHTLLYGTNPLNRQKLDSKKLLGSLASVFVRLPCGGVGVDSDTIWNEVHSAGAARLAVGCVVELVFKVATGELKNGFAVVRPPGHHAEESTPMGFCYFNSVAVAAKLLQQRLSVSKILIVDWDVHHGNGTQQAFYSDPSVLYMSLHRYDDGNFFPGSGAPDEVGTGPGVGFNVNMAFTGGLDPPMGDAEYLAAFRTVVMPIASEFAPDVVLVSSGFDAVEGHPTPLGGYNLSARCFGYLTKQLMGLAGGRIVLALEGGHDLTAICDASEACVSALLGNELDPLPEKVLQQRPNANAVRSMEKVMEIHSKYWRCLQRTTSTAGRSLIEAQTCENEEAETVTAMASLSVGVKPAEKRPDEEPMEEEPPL

HDAC9 = HDAC9 (Homo sapiens, UniProt Q9UKV0); experiment: HDAC inhibition assay, HDAC9
Sequence of HDAC9 (Q9UKV0 whole entry): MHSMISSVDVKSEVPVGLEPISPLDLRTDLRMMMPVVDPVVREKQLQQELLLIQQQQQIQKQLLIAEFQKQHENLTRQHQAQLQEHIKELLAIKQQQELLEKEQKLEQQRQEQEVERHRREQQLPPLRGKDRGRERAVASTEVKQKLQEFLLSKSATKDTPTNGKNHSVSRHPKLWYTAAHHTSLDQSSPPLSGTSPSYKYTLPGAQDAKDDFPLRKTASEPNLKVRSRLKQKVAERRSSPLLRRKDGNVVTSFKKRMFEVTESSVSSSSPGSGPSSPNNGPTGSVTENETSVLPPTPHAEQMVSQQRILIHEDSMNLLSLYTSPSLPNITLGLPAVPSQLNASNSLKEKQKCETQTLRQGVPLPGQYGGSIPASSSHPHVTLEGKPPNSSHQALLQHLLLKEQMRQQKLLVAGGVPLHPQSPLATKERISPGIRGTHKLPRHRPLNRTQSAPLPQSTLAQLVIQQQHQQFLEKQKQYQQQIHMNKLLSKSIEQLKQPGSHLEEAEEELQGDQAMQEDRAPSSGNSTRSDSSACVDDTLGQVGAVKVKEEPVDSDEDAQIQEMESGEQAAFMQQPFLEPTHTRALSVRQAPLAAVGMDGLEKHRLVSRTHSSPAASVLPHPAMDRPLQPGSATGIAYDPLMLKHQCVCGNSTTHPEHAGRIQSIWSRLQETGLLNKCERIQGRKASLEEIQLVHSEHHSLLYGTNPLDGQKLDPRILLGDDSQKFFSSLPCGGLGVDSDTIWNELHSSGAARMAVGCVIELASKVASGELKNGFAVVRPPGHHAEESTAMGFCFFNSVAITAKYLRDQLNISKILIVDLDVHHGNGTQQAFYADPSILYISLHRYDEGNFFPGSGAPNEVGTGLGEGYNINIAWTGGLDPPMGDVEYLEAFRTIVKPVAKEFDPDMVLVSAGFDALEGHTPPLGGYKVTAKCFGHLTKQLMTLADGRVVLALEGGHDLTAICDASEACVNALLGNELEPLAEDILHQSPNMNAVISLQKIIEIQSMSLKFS

HeLa nuclear HDACs = experiment: HDAC inhibition assay, HeLa nuclear extract (mixture of class I HDACs 1, 2, and 3); conditions: read-out: IC50 HeLa nuclear HDACs, Boc-Lys-(AMC) substrate
MDA-MB-231 cells = experiment: Cell viability (MTT) assay, MDA-MB-231; type: cell-based; conditions: human breast cancer cells, read-out: IC50 of cytotoxicity MDA-MB-231
Text: as §1, §2

[2] = system: SCC2095, MDA-MB-231 and SCM-1 cells; experiment: Cell viability (MTT) assay, cancer cell lines (summary); type: cell-based; conditions: Homo sapiens; SCC2095, MDA-MB-231, SCM-1; read-out: IC50 of cytotoxicity, range over cancer cell lines
Text: as §1, §2

NC(=NO)c1ccc2c(c1)N(Cc1ccc(C(=O)NO)c(-c3ccccc3)c1)c1ccccc1S2 [Compound 7g, N-Hydroxy-4-[2-(N’-hydroxycarbamimidoyl)-10H-phenothiazin-10-yl]methyl-2-phenylbenzamide]
IC50 (HDAC8): 1950 nM
IC50 (HDAC6): 970 ± 50 nM
IC50 [1]: 8000 nM
IC50 (HDAC4): 180 ± 60 nM
IC50 (HDAC9): 40 ± 1 nM
IC50 (HeLa nuclear HDACs): > 40000 nM
IC50 (MDA-MB-231 cells): 8400 ± 2700 nM
IC50 [2]: 3000 to 8400 nM
